Data reported in patent publication US10143681B2, “Factor XIa inhibitors” (MERCK SHARP & DOHME CORP., priority 2016, dated 2018).

Experiments:
Human plasma kallikrein = Human plasma kallikrein (Homo sapiens (Human), UniProt P03952); experiment: Kallikrein Assay; format: biochemical; settings: purified Human plasma kallikrein 0.5 nM, substrate Acetyl-K-P-R-AFC; read-out: P. KLK IC50
Procedure: The effectiveness of a compound of the present invention as an inhibitor of Kallikrein can be determined using a relevant purified serine protease, and an appropriate synthetic substrate. The rate of hydrolysis of the chromogenic or fluorogenic substrate by the relevant serine protease was measured both in the absence and presence of compounds of the present invention. Assays were conducted at room temperature or at 37° C. […] A decrease in the rate of fluorescence change in the presence of inhibitor is indicative of enzyme inhibition. Such methods are known to one skilled in the art. The results of this assay are expressed as the half-maximal inhibitory concentrations (IC50), or the inhibitory constant, Ki.
Kallikrein determinations were made in 50 mM HEPES buffer at pH 7.4 containing 150 mM NaCl, 5 mM CaCl2, and 0.1% PEG 8000 (polyethylene glycol; Fisher Scientific). Determinations were made using purified Human plasma kallikrein at a final concentration of 0.5 nM (Enzyme Research Laboratories) and the synthetic substrate, Acetyl-K-P-R-AFC (Sigma # C6608) at a concentration of […].
Times required to achieve equilibration between enzyme and inhibitor were determined in control experiments. The reactions were performed under linear progress curve conditions and fluorescence increase measured at 405 Ex/510 Em nm. […] IC50 was determined by inflection point from a four parameter logistic curve fit. Ki was calculated using the Cheng Prusoff equation, Ki=IC50/(1+([S]/Km)).

human Factor XIa = human Factor XIa (Homo sapiens (Human), UniProt P03951); experiment: Factor XIa Assay; format: biochemical; settings: human Factor XIa 0.04 nM, 30 min pre-incubation at 25° C., substrate GPR-AFC; read-out: FXIa IC50
human Factor XIa, sequence (P03951 388-625): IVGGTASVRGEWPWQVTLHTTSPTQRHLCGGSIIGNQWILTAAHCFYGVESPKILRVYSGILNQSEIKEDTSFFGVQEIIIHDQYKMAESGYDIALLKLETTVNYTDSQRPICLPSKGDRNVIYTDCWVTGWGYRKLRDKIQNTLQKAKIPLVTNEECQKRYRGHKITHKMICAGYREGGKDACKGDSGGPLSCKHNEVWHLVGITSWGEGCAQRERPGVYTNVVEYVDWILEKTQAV
human Factor XIa, sequence (P03951 19-387 partner): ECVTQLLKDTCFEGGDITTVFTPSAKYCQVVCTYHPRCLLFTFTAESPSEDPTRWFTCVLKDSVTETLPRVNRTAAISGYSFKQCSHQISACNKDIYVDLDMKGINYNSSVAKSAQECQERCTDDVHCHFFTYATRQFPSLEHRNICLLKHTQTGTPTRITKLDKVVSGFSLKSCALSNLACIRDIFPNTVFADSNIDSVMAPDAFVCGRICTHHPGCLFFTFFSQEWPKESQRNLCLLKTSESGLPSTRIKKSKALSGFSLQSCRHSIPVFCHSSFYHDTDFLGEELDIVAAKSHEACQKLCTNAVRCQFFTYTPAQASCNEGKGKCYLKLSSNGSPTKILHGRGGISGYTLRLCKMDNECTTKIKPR
How it was run: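 IC50 values were obtained from four-parameter log(inhibitor)-response fits of % inhibition, then converted to Ki using Cheng-Prusoff. GPR-AFC hydrolysis was read at 400/505 nm after 60 min at 25 °C.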

[1] = tested on: Human plasma (intrinsic coagulation cascade); experiment: Activated Partial Thromboplastin Time (aPTT) Assay; settings: concentration that causes a 50% (1.5×) increase of clot time over vehicle
Procedure: Activated partial thromboplastin time (aPTT) is a clotting test that measures the intrinsic coagulation cascade. The test is performed in sodium citrated plasma. Human plasma is made by collecting blood from healthy donors of both genders into Na citrate tubes (Sarstedt coagulation 9NC/10 ml). Blood is centrifuged at 1500×g and the plasma is collected. aPTT is checked on each individual donor and those within the normal range (28-40 seconds) are pooled, aliquoted, and stored at −80 C. Test samples are prepared by spiking inhibitors or vehicle into plasma. These spiked samples are then run on a coagulation analyzer (STA-R Evolution, Stago Diagnostica). In general, the analyzer performs the following steps: Factor XII is activated by addition of ellagic acid (Pacific Hemostasis), and then time to clot is measured after re-calcification of the sample. Inhibition of FXI will cause aPTT clot time to be prolonged. The data is expressed as percent increase over vehicle control clot time and the concentration that causes a 50% (1.5×) percent increase of clot time are reported.

Human plasma kallikrein, sequence (P03952 391-638): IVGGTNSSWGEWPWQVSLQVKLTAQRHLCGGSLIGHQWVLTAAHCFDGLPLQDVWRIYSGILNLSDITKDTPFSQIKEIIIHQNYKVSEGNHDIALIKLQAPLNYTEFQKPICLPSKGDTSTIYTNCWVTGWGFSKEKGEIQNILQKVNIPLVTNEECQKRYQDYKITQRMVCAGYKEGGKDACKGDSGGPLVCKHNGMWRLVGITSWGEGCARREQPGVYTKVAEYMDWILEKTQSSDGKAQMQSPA
Human plasma kallikrein, sequence (P03952 20-390 partner): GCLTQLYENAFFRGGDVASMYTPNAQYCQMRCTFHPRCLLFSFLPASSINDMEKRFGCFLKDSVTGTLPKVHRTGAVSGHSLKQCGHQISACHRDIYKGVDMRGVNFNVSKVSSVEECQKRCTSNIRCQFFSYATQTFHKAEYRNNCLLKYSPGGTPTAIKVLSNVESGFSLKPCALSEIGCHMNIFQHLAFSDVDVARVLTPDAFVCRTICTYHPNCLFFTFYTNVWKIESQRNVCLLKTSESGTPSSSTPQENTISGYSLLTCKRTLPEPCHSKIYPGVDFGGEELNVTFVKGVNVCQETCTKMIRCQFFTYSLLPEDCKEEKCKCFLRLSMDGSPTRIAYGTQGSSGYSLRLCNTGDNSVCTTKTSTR

Compound	IC50 (Human plasma kallikrein) [µM]	IC50 (human Factor XIa) [µM]	aPTT (1.5x) [1] [µM]
Cc1cc(NC(=O)C(CC2CC2)c2ccc(-c3c(C(F)F)ccc(Cl)c3F)c[n+]2[O-])ccc1C(=O)O (single isomer, unassigned) [Example 122, 2-(1-((4-carboxy-3-methylphenyl)amino)-3-cyclopropyl-1-oxopropan-2-yl)-5-(3-chloro-6-(difluoromethyl)-2-fluorophenyl)pyridine 1-oxide]	0.0698	0.0099	
O=C1CCC(CC(C(=O)Nc2ccc(C(=O)O)cc2)c2ccc(-c3c(OC(F)F)ccc(Cl)c3F)c[n+]2[O-])CC1 (single isomer, unassigned) [Example 33]	0.081		
O=C(O)c1ccc(NC(=O)C(CC2CC2(F)F)c2ccc(-c3c(C(F)F)ccc(Cl)c3F)c[n+]2[O-])cc1 (single isomer, unassigned) [Example 77, 2-(1-((4-carboxyphenyl)amino)-3-(2,2-difluorocyclopropyl)-1-oxopropan-2-yl)-5-(3-chloro-6-(difluoromethyl)-2-fluorophenyl)pyridine 1-oxide]	0.0376		
O=C(O)c1ccc(NC(=O)C(CC2CCCC2)c2ccc(-c3c(OC(F)F)ccc(Cl)c3F)c[n+]2[O-])cc1 (single isomer, unassigned) [Example 18, (S)- or (R)-4-[(2-{5-[3-chloro-6-(difluoromethoxy)-2-fluorophenyl]-1-oxidopyridin-2-yl}-3-cyclopentylpropanoyl)amino] benzoic acid]		0.1	>100
O=C(O)c1ccc(NC(=O)C(CC2CC2F)c2ccc(-c3c(C(F)F)ccc(Cl)c3F)c[n+]2[O-])cc1 (single isomer, unassigned) [Example 91, 2-(1-((4-carboxyphenyl)amino)-3-(2-fluorocyclopropyl)-1-oxopropan-2-yl)-5-(3-chloro-6-(difluoromethyl)-2-fluorophenyl)pyridine 1-oxide]		0.0279	5.93
CCOc1ccc(Cl)c(F)c1-c1ccc(C(CC2CC2)C(=O)Nc2ccc(C(=O)O)cc2)[n+]([O-])c1 (single isomer, unassigned) [Example 8, (S)- or (R)-4-({2-[5-(3-chloro-6-ethoxy-2-fluorophenyl)-1-oxidopyridin-2-yl]-3-cyclopropylpropanoyl}amino) benzoic acid]		0.968	>100

The next lines start with results.

IC50 (Human plasma kallikrein) [µM]	IC50 (human Factor XIa) [µM]	Compound	aPTT (1.5x) [1] [µM]
0.0053	0.0011	O=C(O)c1ccc(NC(=O)C(CC2CC2C(F)F)c2ccc(-c3c(C(F)F)ccc(Cl)c3F)c[n+]2[O-])cc1 (single isomer, unassigned) [Example 90, 2-(1-((4-carboxyphenyl)amino)-3-(2-(difluoromethyl)cyclopropyl)-1-oxopropan-2-yl)-5-(3-chloro-6-(difluoromethyl)-2-fluorophenyl)pyridine 1-oxide]	
0.0071	0.0006	O=C(O)c1ccc(NC(=O)C(CC2CC2C(F)F)c2ccc(-c3c(C(F)F)ccc(Cl)c3F)c[n+]2[O-])cc1 (single isomer, unassigned) [Example 89, 2-(1-((4-carboxyphenyl)amino)-3-(2-(difluoromethyl)cyclopropyl)-1-oxopropan-2-yl)-5-(3-chloro-6-(difluoromethyl)-2-fluorophenyl)pyridine-1-oxide]	
0.0778	0.0033	CC1CC(CC(C(=O)Nc2ccc(C(=O)O)cc2)c2ccc(-c3c(C(F)(F)F)ccc(Cl)c3F)c[n+]2[O-])C1 (single isomer, unassigned) [Example 75, 2-(1-((4-carboxyphenyl)amino)-3-(3-methylcyclobutyl)-1-oxopropan-2-yl)-5-(3-chloro-2-fluoro-6-(trifluoromethyl)phenyl) pyridine 1-oxide]	
0.035	0.0032	C[C@]1(O)CC[C@@H](CC(C(=O)Nc2ccc(C(=O)O)cc2)c2ccc(-c3c(OC(F)F)ccc(Cl)c3F)c[n+]2[O-])CC1 (single isomer, unassigned) [Example 40, 2-(1-((4-carboxyphenyl)amino)-3-((1s,4s)-4-hydroxy-4-methylcyclohexyl)-1-oxopropan-2-yl)-5-(3-chloro-6-(difluoromethoxy)-2-fluorophenyl)pyridine 1-oxide]	
